Experimental data taken from paper PMC12040169 (PLOS Biology, 2025).

Assay: in vitro
Details: human, hela cells, % viability

Compound | viability at 28.5 h, 10 µM [%]
COc1ccc([C@@]23CC[C@@H](NC(=O)Nc4ccc(F)c(F)c4)C[C@@H]2N(C)CC3)c(F)c1OC [CBK067405] | 102
O=C(COc1ccccc1)NCC1(c2ccccc2)CCOCC1 [CBK067407] | 103
O=C(NCC1(c2ccccc2)CCOCC1)c1ccno1 [CBK067408] | 98.2
COc1ccc(C)cc1S(=O)(=O)Nc1cc(OCCN2CCOCC2)c2occc2c1 [CBK067419C] | 87.7
O=C1CCC(=O)N1Cc1cccc(-c2ccnc(NS(=O)(=O)c3ccc(Cl)cc3)n2)c1 [CBK067436] | 86.3
COc1ccc(S(=O)(=O)Nc2nccc(-c3ccc(CN4C(=O)CCC4=O)cc3)n2)cc1 [CBK067438] | 91.5
CC(C)CN(C)CC(=O)NC1(c2ccccc2)CCC1 [CBK067455T] | 111
O=C(NCCC1SC(NC2CCCCCC2)=NC1=O)Nc1ccc(F)cc1F (stereo not shown) [CBK067469] | 99.7
Cc1ccc(S(=O)(=O)Nc2ccnc(-c3ccc(CO)cc3)n2)cc1 [CBK067477] | 90.4
O=[N+]([O-])c1cnc(NS(=O)(=O)c2ccc(Oc3ccccc3)cc2)s1 [CBK067535] | 102
O=[N+]([O-])c1cnc(NS(=O)(=O)c2ccc(-c3cc(C(F)(F)F)on3)s2)s1 [CBK067545] | 103
Cc1noc(C)c1S(=O)(=O)Nc1nc(=O)[nH]cc1F [CBK067569] | 103
O=c1nc(NS(=O)(=O)c2ccc(Oc3ccccc3)cc2)c(F)c[nH]1 [CBK067571] | 89.3
O=c1nc(NS(=O)(=O)c2ccccc2Br)c(F)c[nH]1 [CBK067573] | 76.6
Cn1nc(-c2ccc(S(=O)(=O)Nc3nc(=O)[nH]cc3F)s2)cc1C(F)(F)F [CBK067574] | 96.8
Nc1ncc(-c2ccsc2)c2cccnc12 [CBK067580] | 97.5
CSc1ccc(-c2cnc(N)c3ncccc23)cc1 [CBK067584] | 68.4
COc1cc(F)ccc1-c1cnc(N)c2ncccc12 [CBK067585] | 81.4
CC(C)(C)c1ccc(-c2cnc(N)c3ncccc23)cc1 [CBK067589] | 99.2
Nc1ncc(-c2cccc(C(F)(F)F)c2)c2cccnc12 [CBK067590] | 89.2
Nc1ncc(-c2ccc(-c3ccccc3F)cc2)c2cccnc12 [CBK067597] | 76.5
Nc1cc2cccnc2nc1-c1ccncc1 [CBK067601] | 96.5
CC(C)(C)c1ccc(-c2nc3ncccc3cc2N)cc1 [CBK067611] | 94.4
Nc1cc2cccnc2nc1-c1ccc(OC(F)(F)F)cc1 [CBK067616] | 93.8

Compound | viability at 28.5 h, 10 µM [%]
Nc1ccc2ccc(-c3ccncc3)nc2n1 [CBK067622] | 82.8
Nc1ccc2ccc(-c3cccc(C(F)(F)F)c3)nc2n1 [CBK067629] | 97.5
Nc1ccc2c(-c3ccsc3)ccnc2n1 [CBK067637] | 95.5
Nc1ccc2c(-c3cc(F)cc(F)c3)ccnc2n1 [CBK067638] | 93.4
O=C(CC1SC(NC2CCCCCC2)=NC1=O)NCc1c(F)cccc1Cl (stereo not shown) [CBK067656] | 89.7
Cn1c(SCc2cccnc2)nnc1-c1cccs1 [CBK067706] | 93.1
Cn1cnnc1SCC(=O)c1cccc(C(F)(F)F)c1 [CBK067718] | 93.5
CSc1nnc(-c2ccco2)n1-c1cccc(Cl)c1C [CBK067723] | 93.1
CCOC(=O)c1sc(-c2ccccc2)nc1OCc1ccccc1Cl [CBK067727] | 95.8
O=C(O)Cc1sc(-c2ccc(Cl)cc2)nc1O [CBK067730] | 93.1
CCOC(=O)c1nc(-c2ccccc2)sc1C(C)=O [CBK067739] | 98.8
COC(=O)COc1ccccc1/C=C1\SC(c2ccc(C)cc2)=NC1=O [CBK067741] | 92.6
COC(=O)c1sccc1OCc1nnc(-c2ccc(Cl)c(Cl)c2)o1 [CBK067742] | 96.5
CSc1oc(-c2ccccc2)nc1C(N)=O [CBK067744] | 98.4
CCOC(=O)c1sc(NC(=O)c2ccccc2Br)nc1C [CBK067745] | 90.2
NC(=O)c1csc(-c2ccc(F)cc2F)n1 [CBK067749] | 68.6
CCCC1=NNC(=O)C1Cc1c(F)cccc1Cl (stereo not shown) [CBK067753] | 88.8
CC1=NNC(=O)C1Cc1c(Cl)cccc1Cl (stereo not shown) [CBK067754] | 109
CC1=NNC(=O)C1Cc1ccc(F)cc1 (stereo not shown) [CBK067755] | 97.4
CC1=NNC(=O)C1C(c1ccc(Cl)cc1Cl)C1C(=O)NN=C1C (stereo not shown) [CBK067756] | 109
O=C1NN=C(Cc2ccccc2)C1c1ccccc1 (stereo not shown) [CBK067757] | 95.6
O=C1NN=C(O)C1Cc1ccccc1 (stereo not shown) [CBK067758] | 101
Cc1nn(C)c(O)c1Cc1c(F)cccc1Cl [CBK067759] | 92.5
CCCC1=NNC(=O)/C1=C\c1cnc[nH]1 [CBK067767] | 105

Compound | viability at 28.5 h, 10 µM [%]
CC1=NN(c2ccccc2)C(=O)/C1=C\c1ccc(Cl)cc1 [CBK067772] | 96.7
CC1=NN(c2ccccc2F)C(=O)C1 [CBK067773] | 96.8
COC(=O)c1csc(-c2ccc(Cl)cc2Cl)n1 [CBK067776] | 103
O=C(O)c1csc(-c2ccc(Cl)cc2Cl)n1 [CBK067777] | 90
CC(C)CN(CCc1ccc(O)cc1)CC(=O)NC1(c2ccccc2)CCC1 [CBK067781T] | 100
Cc1nn(C)c(Cl)c1S(=O)(=O)Nc1cc(N2CCN(C(=O)OC(C)(C)C)CC2)c2occc2c1 [CBK067787] | 95.8
CN1CC[C@]2(c3ccc4c(c3)nnn4C)CC[C@@H](NC(=O)Nc3cc(F)cc(C(F)(F)F)c3)C[C@H]12 [CBK067800] | 99.2
CC1(C)SC(NCC2CCCCC2)=NC1=O [CBK067808] | 91.2
CN(C)C(=O)c1sc2ccccc2c1Cl [CBK067817] | 82.4
COc1ccc(C)cc1S(=O)(=O)Nc1cc(NCCCN2CCOCC2)c2occc2c1 [CBK067837C] | 105
O=S(=O)(Nc1cc(NCCCN2CCOCC2)c2occc2c1)c1ccccc1C(F)(F)F [CBK067838C] | 94.9
COc1ccc(C)cc1S(=O)(=O)N(CCO)c1cc(N2CCNCC2)c2occc2c1 [CBK067894C] | 86
Cc1ccc(S(=O)(=O)Nc2ccnc(-c3ccc(CN4C(=O)CSC4=O)cc3)n2)cc1 [CBK067925] | 96.1
COc1ccc([C@@]23CC[C@@H](NC(=O)Nc4ccc(F)c(F)c4)C[C@@H]2N(C)CC3)cc1C#N [CBK067952T] | 107
CC(C)(C)c1ccc(-c2nnc(SCC(=O)c3ccc(F)cc3)o2)cc1 [CBK067988] | 102
O=C(Nc1nc(-c2ccccc2)cs1)c1ccc(Br)cc1 [CBK068003] | 82.4
O=C(O)CSc1nnc(-c2ccc(F)cc2)o1 [CBK068115] | 104
Cc1cccc(C)c1NC(=O)C(C)Sc1nc2ccccc2c(=O)n1CC1CCCO1 (stereo not shown) [CBK068151] | 95
Cc1nnc(NS(=O)(=O)c2ccc(Br)cc2)s1 [CBK068266] | 101
CCOc1ccc(-c2nnn(CC(N)=O)n2)cc1 [CBK068283] | 110
O=C(c1ccccc1)N1CCN(C(=O)c2ccco2)CC1 [CBK068314] | 96.6
CC(=O)Nc1ccc(S(=O)(=O)N2CCN(C(=O)c3ccco3)CC2)cc1 [CBK068319] | 90.5
O=C(Cc1ccccc1)N1CCN(C(=O)c2ccco2)CC1 [CBK068325] | 93.4
CC(=O)CSc1nnc(-c2ccc(F)cc2)o1 [CBK068327] | 110

Compound | viability at 28.5 h, 10 µM [%]
O=C(c1ccco1)N1CCN(S(=O)(=O)c2ccc(Cl)cc2)CC1 [CBK068411] | 104
Cc1ccc2cc(CN(Cc3cccs3)C(=O)NCc3ccccc3)c(=O)[nH]c2c1C [CBK068496] | 91.2
O=C(CSc1nnc(-c2ccccc2Br)o1)c1ccc(F)cc1 [CBK068688] | 92.2
COC(=O)c1ccc(S(=O)(=O)N2CCc3ccccc3C2)cc1 [CBK068696] | 109
Cc1ccc2[nH]c(=O)c(CN(Cc3ccccc3)C(=O)NC3CCCCC3)cc2c1 [CBK068704] | 84.5
O=C(CSc1nnc(-c2cccc(F)c2)o1)c1ccccc1 [CBK068764] | 105
COCCn1nnnc1C(c1cc2cc(C)cc(C)c2[nH]c1=O)N1CCOCC1 (stereo not shown) [CBK068815] | 95.3
CCCOc1ccc(-c2nnn(CC(=O)OCC)n2)cc1 [CBK068817] | 98.8
CCOC(=O)CSc1nnc(-c2ccc(Cl)cc2)o1 [CBK068845] | 105
COC(=O)Cn1nnc(-c2ccccc2)n1 [CBK069215] | 84.8
COCCNC(=O)Cn1nnc(-c2ccc(OC)cc2)n1 [CBK069349] | 88.1
CS(=O)(=O)Nc1nnc(C2CCCCC2)s1 [CBK069540] | 95.6
CCOC(=O)Cn1nnc(-c2ccc(Cl)cc2)n1 [CBK069596] | 95.8
COc1ccc(NC(=O)C2CCCN2S(=O)(=O)c2ccc(OC)cc2)cc1 (stereo not shown) [CBK070001] | 78.1
COc1cccc(-c2csc(N3CCN(C(=O)Nc4ccccc4)CC3)n2)c1 [CBK070275] | 95.4
CC(C)C1OC(NCc2ccccc2Cl)=NC1=O (stereo not shown) [CBK070344] | 95.1
COc1ccc(S(=O)(=O)N2CCN(c3ccccc3F)CC2)cc1 [CBK070377] | 87.1
CC(C)C1OC(N2CCOCC2)=NC1=O (stereo not shown) [CBK070384] | 92.3
CCC(=O)Nc1nc(-c2ccc(OC)cc2)cs1 [CBK070494] | 85.7
CCCCOc1ccc(-c2nnn(C(C)C(=O)O)n2)cc1 (stereo not shown) [CBK070540] | 103
CCCCOc1ccc(-c2nnn(CC(=O)Nc3ccccc3)n2)cc1 [CBK070609] | 90.2
CCNC(=O)Nc1ncc(-c2ccc3c(c2)OCCCO3)c2cccnc12 [CBK070634] | 104
